Source: the NIST ThermoML archive (doi:10.1016/j.tca.2015.09.008)
“And” between values parts separate entries of the source, which are not always exact repeats. Equal entries are not always repeated. Numbers after ± are expanded uncertainties.

Conditions: Crystal, Calculated from knudsen effusion weight loss

[I][La]([I])[I] [lanthanum triiodide]
vapor or sublimation pressure (827 K): 4.7e-07 ± 3.5e-07 kPa
vapor or sublimation pressure (845 K): 1.1e-06 ± 6e-07 kPa
vapor or sublimation pressure (862 K): 2.5e-06 ± 1.2e-06 kPa
vapor or sublimation pressure (869 K): 3.5e-06 ± 1.5e-06 kPa
vapor or sublimation pressure (875 K): 4.7e-06 ± 3.5e-06 kPa
vapor or sublimation pressure (884 K): 7.1e-06 ± 3.9e-06 kPa
vapor or sublimation pressure (905 K): 1.7e-05 ± 7e-06 kPa
vapor or sublimation pressure (910 K): 2.2e-05 ± 7e-06 kPa and 8.9e-06 ± 6.2e-06 kPa
vapor or sublimation pressure (921 K): 1.6e-05 ± 1.7e-05 kPa and 3.4e-05 ± 1.7e-05 kPa
vapor or sublimation pressure (937 K): 6.5e-05 ± 2.8e-05 kPa and 4e-05 ± 2.7e-05 kPa
vapor or sublimation pressure (943 K): 8.1e-05 ± 3.4e-05 kPa and 5.4e-05 ± 3.3e-05 kPa
vapor or sublimation pressure (953 K): 0.00012 ± 6.2e-05 kPa and 9.1e-05 ± 6.3e-05 kPa
vapor or sublimation pressure (962 K): 0.00017 ± 6.7e-05 kPa and 0.00014 ± 6.6e-05 kPa
vapor or sublimation pressure (978 K): 0.00031 ± 9.3e-05 kPa and 0.00033 ± 0.00011 kPa
